The results in this text go back to patent publication US9220705B2, “Method of treating colorectal cancer” (priority 2013, dated 2015).

The test system of test [1] is HCT-15. Description: MTT cytotoxicity assay, 72 h. In kind it is cell-based, human. Conditions: HCT-15, colon. From the text: (§1) Human breast (MCF-7) and colon (HCT-15, DDL1, SW480 and CaCo-2) carcinoma cell lines along with melanoma (A375) were obtained from the American Type Culture Collection (ATCC, Rockville, Md.). A431 are human cervical carcinoma cells kindly provided by Prof. F. Zunino (Molecular Pharmacology Unit, Experimental Oncology and Molecular Medicine, Istituto Nazionale dei Tumori, Milan, Italy). […] G. Marverti (Dept. of Biomedical Science, University of Modena, Italy). LoVo human colon-carcinoma cell line and its multidrug-resistant sublime (LoVo MDR) were kindly provided by Prof F. Maj one (Department of Biology of Padova University, Italy). […] Cell lines were maintained in the logarithmic phase at 37° C. in a 5% carbon dioxide atmosphere using the following culture media containing 10% fetal calf serum (Euroclone, Milan, Italy), antibiotics (50 units mL^−1 penicillin and 50 μg mL^−1 streptomycin), and 2 mM L-glutamine in: i) RPMI-1640 medium (Euroclone) for MCF-7, HCT-15, A431, DLD 1, 2008, and C13* cells; ii) F-12 HAM'S (Sigma Chemical Co.) for LoVo, LoVo MDR, and LoVo-OXP cells; iii) DMEM for A375 and SW 480 cells; and iv) MEM for CaCo-2 cells.
(§2) The growth inhibitory effect towards tumor cell lines was evaluated by means of the MTT (3-(4,5-dimethylthiazol-2-yl)-2,5-diphenyltetrazolium bromide) assay (Alley, M. C., et al., Cancer Res. 1988, 48, 589-601).
(§3) Briefly, depending upon the growth characteristics of the cell line, 3-8×10^3 cells well^−1, were seeded in 96-well microplates in growth medium (100 μL) and then incubated at 37° C. in a 5% carbon dioxide atmosphere. After 24 h, the medium was removed and replaced with a fresh one containing the compound to be studied, at the appropriate concentration, dissolved in 0.9% sodium chloride solution just before use. Triplicate cultures were established for each treatment. After 72 h, each well was treated with […] of a 5 mg mL^−1 MTT saline solution and, after 5 h of incubation, 100 μL of a sodium dodecylsulfate (SDS) solution in 0.01 M HCl were added. After an overnight incubation, the inhibition of cell growth induced by the tested complexes was determined by measuring the absorbance of each well at 570 nm using a BioRad 680 microplate reader. Mean absorbance for each drug dose was expressed as percentage of the control and plotted vs. drug concentration. Dose-response curves were fitted and IC50 values were calculated with four parameter logistic model (4PL).
(§4) Compound 1 was prepared for the first time almost twenty years ago however, until now, it had been tested (both in vitro and in vivo) only in a limited number of tumor cell lines (Hoeschele, J. D., et al., J. Med. Chem. 1994, 37, 2630-2636 and Shamsuddin, S., et al., J. Inorg. Biochem. 1996, 61, 291-301). The Pt(II) and Pt(IV) complexes containing isomeric forms of diaminocyclohexane, [PtCl2(cis-1,4-DACHA](1), [PtCl2(1R,2R-DACH)] (2), [Pt(OXA)(cis-1,4-DACH)] (3), cis,trans,cis-[Pt^IVCl2(OH)2(cis-1,4-DACH)] (4), cis,trans,cis-[Pt^IVCl2(DCA)2(cis-1,4-DACH)] (5), [Pt(CBDCA)(cis-1,4-DACH)] (6), cis,trans,cis-[Pt^IV(OXA)(OH)2(cis-1,4-DACH)] (7), and cis,trans,cis-[Pt^IV(OXA)(DCA)2(cis-1,4-DACH)] (8) were evaluated for their cytotoxic activity towards a panel of human tumor cell lines including cervical (A431), breast (MCF-7), cancers along with a melanoma (A375) and 4 different colon cancer cell lines corresponding to different stages of the disease progression (HCT-15, SW480, CaCo-2, DLD-1). The cytotoxicity was evaluated by means of the MTT test for 72 h treatment with increasing concentrations of the tested compounds.

Test [2] has as its system A375. Briefly: MTT cytotoxicity assay, 72 h. Format: cell-based, human. Conditions: A375, skin.
Text: as §1, §2, §3, §4
In general terms: Tetrazolium dyes change colour on reduction, which living cells bring about.

Test [3] has as its system A431. Briefly: MTT cytotoxicity assay, 72 h. In kind it is cell-based, human. Conditions: A431, cervix.
Text: as §1, §2, §3, §4

Test [4] concerns SW480. Briefly: MTT cytotoxicity assay, 72 h. The settings on record: SW480, colon. In kind it is cell-based, human.
Text: as §1, §2, §3, §4

Test [5] has as its system DLD-1. Briefly: MTT cytotoxicity assay, 72 h. Format: cell-based, human. Conditions: DLD-1, colon.
Text: as §1, §2, §3, §4

Test [6] has as its system MCF-7. Description: MTT cytotoxicity assay, 72 h. In kind it is cell-based, human. Conditions: MCF-7, breast.
Text: as §1, §2, §3, §4

Test [7] concerns panel of human tumor cell lines (A431, MCF-7, A375, HCT-15, SW480, CaCo-2, DLD-1). Description: MTT cytotoxicity, comparison over the Table 1 panel. Format: cell-based. Conditions: in five out of the seven cell lines. The method, then: as §3, with “After” for “Briefly, depending upon the growth characteristics of the cell line, 3-8×10^3 cells well^−1, were seeded in 96-well microplates in growth medium (100 μL) and then incubated at 37° C. in a 5% carbon dioxide atmosphere. After”
The cytotoxicity was evaluated by means of the MTT test for 72 h treatment with increasing concentrations of the tested compounds.

Test [8] deals with LoVo colon cancer cells. Briefly: MTT cytotoxicity assay, cross-resistance profile. Format: cell-based, human. Conditions: 72 h.
Text: (§5) Human breast (MCF-7) and colon (HCT-15, DDL1, SW480 and CaCo-2) carcinoma cell lines along with melanoma (A375) were obtained from the American Type Culture Collection (ATCC, Rockville, Md.). A431 are human cervical carcinoma cells kindly provided by Prof. F. Zunino (Molecular Pharmacology Unit, Experimental Oncology and Molecular Medicine, Istituto Nazionale dei Tumori, Milan, Italy). […] G. Marverti (Dept. of Biomedical Science, University of Modena, Italy). LoVo human colon-carcinoma cell line and its multidrug-resistant sublime (LoVo MDR) were kindly provided by Prof F. Maj one (Department of Biology of Padova University, Italy).
as §2, §3
(§6) A LoVo cell line retaining a multidrug resistance phenotype was also considered (LoVo MDR). Cross-resistance profiles were evaluated by means of the resistance factor (RF), which is defined as the ratio between the IC50 value for the resistant cells and that arising from the sensitive cells (Table 2).

For test [9], the system named is 2008 ovarian cancer cells. Briefly: MTT cytotoxicity assay, cross-resistance profile. In kind it is cell-based, human. Conditions: 72 h.
Text: as §1, §2, §3, §6

In test [10] the test system is LoVo-OXP oxaliplatin resistant colon cancer cells. Description: MTT cytotoxicity assay, cross-resistance profile. Format: cell-based, human.
Text: as §1, §2, §3, §6

Test [11] relates to C13* cisplatin resistant ovarian cancer cells. Briefly: MTT cytotoxicity assay, cross-resistance profile. In kind it is cell-based, human.
Text: as §1, §2, §3, §6

Test [12] has as its system CaCo-2. Briefly: MTT cytotoxicity assay, 72 h. Format: cell-based, human. The settings on record: CaCo-2, colon.
Text: as §5, §2
Briefly, depending upon the growth characteristics of the cell line, 3-8×10^3 cells well^−1, were seeded in 96-well microplates in growth medium (100 μL) and then incubated at 37° C. in a 5% carbon dioxide atmosphere. […] After an overnight incubation, the inhibition of cell growth induced by the tested complexes was determined by measuring the absorbance of each well at 570 nm using a BioRad 680 microplate reader. Mean absorbance for each drug dose was expressed as percentage of the control and plotted vs. drug concentration. […]

Test [13] deals with LoVo MDR multidrug resistant colon carcinoma subline. Description: MTT cytotoxicity assay, cross-resistance profile. In kind it is cell-based, human.
Text: as §1, §2, §3, §6
In Table 2 are also reported the results obtained in a multidrug resistant (MDR) colon carcinoma subline, LoVo MDR, in which the resistance to doxorubicin, a drug belonging to the MDR spectrum, is associated with an overexpression of multi-specific drug transporters, such as the 170 kDa P-glycoprotein (P-gp) (Wersinger, C., et al., Amino Acids 2000, 19, 667-685). It is well known that acquired MDR, whereby cells become refractory to multiple drugs, poses most important challenge to the success of anticancer chemotherapy.

“(OC-6-33)-dichloro(cis-1,4-cyclohexanediamine-N,N′)dihydroxyplatinum [Compound 4]”: the IC50 (in general, the concentration that inhibits the measured activity by half) came out at 10.3 ± 1.42 µM in test [1]; 6.23 ± 1.96 µM in test [2]; 6.33 ± 1.99 µM in test [3]; 6.32 ± 2.15 µM in test [4]; 7.74 ± 2.16 µM in test [5]; 7.01 ± 2.05 µM in [6]. Besides, the IC50 in [8] amounted to 6.64 ± 2.7 µM; in test [9], 9.42 ± 1.16 µM; in test [10] (LoVo-OXP, 72 h, MTT) it was 9.46 ± 2.15 µM; in test [11] (C13*, 72 h, MTT) it was 13.8 ± 3.53 µM; in [12], 7.12 ± 3.13 µM; in test [13] (LoVo-MDR, 72 h, MTT) it was 9.26 ± 2.11 µM. Moreover, the “IC50 values fold lower than that of cisplatin” value in test [7] is “up to 2”. Besides, the “R.F. (resistance factor)” value in test [10] (IC50 LoVo-OXP / IC50 LoVo, cross-resistance with oxaliplatin) is listed as 1.6; in test [11] (IC50 C13* / IC50 2008, cross-resistance with cisplatin), 1.5; in test [13] (IC50 LoVo-MDR / IC50 LoVo), 1.5.
